In patent US20230094176A1, “COMPOUNDS AND METHODS FOR IMPROVING IMPAIRED ENDOGENOUS FIBRINOLYSIS USING HISTONE DEACETYLASE INHIBITORS” (Cereno Scientific AB, priority 2011, published 2023):
Read-outs that look alike come from different tables or passages of the source.

Tests used:
[1] = cited from earlier work
[2] = tested on: healthy subjects with an increased risk for atherothrombotic cardiovascular events; experiment: Primary preventive clinical outcome study; assay type: in vivo, human
Protocol: The third outcome study investigates the primary preventive effect of Vorinostat in healthy subjects with an increased risk for atherothrombotic cardiovascular events i.e. cigarette smoking, abnormal blood lipid levels, hypertension, diabetes, abdominal obesity, low-grade inflammation and/or atherosclerosis. Subjects are randomized to double-blind oral treatment with 10 mg Vorinostat or placebo daily. The risk of a primary atherothrombotic event is followed annually. The primary composite efficacy endpoint is mortality, or non-fatal myocardial infarction or ischemic stroke. The study is event-driven to a total of 180 events in the placebo group.
The third outcome study investigates the primary preventive effect of VPA in healthy subjects with an increased risk for atherothrombotic cardiovascular events due to low-grade inflammation. The inflammatory activation is clinically defined as an elevated serum level of high-sensitivity C-reactive protein (hs-CRP) >3 mg/L. Subjects are randomized to double-blind oral treatment with 100 mg valproic acid or placebo twice daily. The risk of a primary atherothrombotic event is followed annually. The primary composite efficacy endpoint is mortality, or non-fatal myocardial infarction or ischemic stroke. The study is event-driven to a total of 180 events in the placebo group. In this population the annual event rate is reduced by 30% from 1.5 to 1%.

[3] = tested on: patients with a recent major atherothrombotic cardiovascular event; experiment: Clinical outcome study in high-risk patients for prevention of recurrent events; assay type: in vivo, human; settings: for annual absolute event rate lowered to: annual risk estimated approximately 7%
Protocol: The first clinical outcome study is performed in high-risk patients who have experienced a recent major atherothrombotic cardiovascular event (myocardial infarction or ischemic stroke) to investigate the preventive effect of Vorinostat treatment on the risk for recurrent events. The annual risk for a recurrent atherothrombotic event in the investigated population is estimated to approximately 7%. Patients are randomized in a parallel study design to receive double-blind oral treatment with 10 mg Vorinostat or placebo daily, in addition to optimal conventional treatment. The event rate is monitored by Kaplan-Meyer statistics. The primary efficacy endpoint is the composite measure of either mortality, or non-fatal myocardial infarction or ischemic stroke. The study is event-driven to a total of 180 events in the placebo group.
The first clinical outcome study is performed in high-risk patients who have experienced a recent major atherothrombotic cardiovascular event (myocardial infarction or ischemic stroke) to investigate the preventive effect of VPA treatment on the risk for recurrent events. Signs of a low-grade inflammatory condition is an inclusion criterion, defined as an elevated serum level of high-sensitivity C-reactive protein (hs-CRP) >3 mg/L. The annual risk for a recurrent atherothrombotic event in the investigated population is estimated to approximately 7%. Patients are randomized in a parallel study design to receive double-blind oral treatment with 100 mg valproic acid or placebo twice daily, in addition to optimal conventional treatment. The event rate is monitored by Kaplan-Meyer statistics. The primary efficacy endpoint is the composite measure of either mortality, or non-fatal myocardial infarction or ischemic stroke. The study is event-driven to a total of 180 events in the placebo group. […] Thus, this study confirms the clinical efficacy and feasibility of using VPA for secondary prevention of cardiovascular events.

[4] = tested on: high-risk patients with recent deep vein thrombosis or pulmonary embolus; experiment: Clinical outcome study for prevention of recurrent venous thromboembolic events; assay type: in vivo, human
Protocol: This study is performed in high-risk patients who have experienced a recent deep vein thrombosis or circulatory stable pulmonary embolus to investigate the preventive effect of Vorinostat treatment on the risk for recurrent venous thrombotic events. Patients with a cancer diagnosis who presents with a first episode of a proximal deep venous thrombosis without unstable pulmonary embolism will be included. The patients will receive conventional treatment (i.e warfarin for 3-6 months) and thereafter included in the study. Patients are randomized in a parallel study design to receive double-blind oral treatment with 10 mg Vorinostat or placebo daily, in addition to optimal conventional treatment. The event rate is monitored by Kaplan-Meyer statistics. The primary efficacy endpoint is the composite measure of either mortality, or recurrent deep venous thrombosis or pulmonary embolism. The study is event-driven to a total of 180 events in the placebo group. […] Thus, this study confirms the clinical efficacy and feasibility of using Vorinostat for secondary prevention of venous thromboembolism.
This study is performed in high-risk patients who have experienced a recent deep vein thrombosis or circulatory stable pulmonary embolus to investigate the preventive effect of VPA treatment on the risk for recurrent venous thrombotic events. Patients with a cancer diagnosis and low grade inflammation who present with a first episode of a proximal deep venous thrombosis without unstable pulmonary embolism are included. The patients receive conventional treatment (i.e warfarin for 3-6 months) and thereafter are included in the study. Patients are randomized in a parallel study design to receive double-blind oral treatment with 100 mg valproic acid or placebo twice daily, in addition to optimal conventional treatment. The event rate is monitored by Kaplan-Meyer statistics. The primary efficacy endpoint is the composite measure of either mortality, or recurrent deep venous thrombosis or pulmonary embolism. The study is event-driven to a total of 180 events in the placebo group. […] Thus, this study confirms the clinical efficacy and feasibility of using VPA for secondary prevention of venous thromboembolism.

[5] = maximum plasma concentration when the MTD is administered to humans
[6] = daily oral dose: Vorinostat 10 mg, Belinostat 65 mg, Givinostat 2 mg, Panobinostat 0.5 mg, PCI-24781 2 mg, JNJ-26481585 0.2 mg, Mocetinostat 2 mg, SB939 0.4 mg, CXD101 10 mg
[7] = doses as for risk reduction (Vorinostat 10 mg, Belinostat 65 mg, Givinostat 2 mg, Panobinostat 0.5 mg, PCI-24781 2 mg, JNJ-26481585 0.2 mg, Mocetinostat 2 mg, SB939 0.4 mg, CXD101 10 mg daily)
[8] = long-term, daily oral dose: Vorinostat 10 mg, Belinostat 65 mg, Givinostat 2 mg, Panobinostat 0.5 mg, PCI-24781 2 mg, JNJ-26481585 0.2 mg, Mocetinostat 2 mg, SB939 0.4 mg, CXD101 10 mg
[9] = daily oral dose: Vorinostat 10 mg, Givinostat 2 mg, Panobinostat 0.5 mg, PCI-24781 2 mg, JNJ-26481585 0.2 mg, Mocetinostat 2 mg, SB939 0.4 mg, CXD101 10 mg, Belinostat example prints 10 mg Vorinostat
[10] = hs-CRP >3 mg/L, 100 mg valproic acid orally twice daily

Structure (SMILES) | MTD ([1]; bidaily, oncology treatment or trials) | Cmax [1, 5] | Cmax (ng/ml) [1, 5] | annual event rate with treatment (reduced from 1.5) [2, 6] | reduction of annual event rate [2, 6] | annual absolute event rate lowered to [3, 7] | reduction of risk for recurrent atherothrombotic events, in addition to conventional therapy [3, 8] | reduction of risk for recurrent venous thrombotic events, in addition to conventional therapy [4, 9] | MTD ([1]; humans, literature) | MTD ([1]; once daily, in healthy volunteers) | Cmax ([1]; in vivo) | Cmax (ng/ml) ([1]; in vivo) | annual event rate with treatment (reduced from 1.5) [2, 10] | reduction of annual event rate [2, 10] | reduction of risk for recurrent atherothrombotic events, in addition to conventional therapy [3, 10] | annual absolute event rate lowered to [3, 10] | reduction of risk for recurrent venous thrombotic events, in addition to conventional therapy ([4]; cancer diagnosis and low grade inflammation, 100 mg valproic acid orally twice daily) | MTD ([1]; once daily, oncology treatment or trials)
O=C(/C=C/c1cccc(S(=O)(=O)Nc2ccccc2)c1)NO [Belinostat] | 1000 mg bidaily | 4000 nM | ~1400 ng/mL | 1% | 30% | approximately 5% | approximately 30% | approximately 30% | – | – | – | – | – | – | – | – | – | –
Cc1nn(C)cc1CN1CCC(c2ccc(C(=O)Nc3ccccc3N)cc2)CC1 [CXD101] | – | – | – | 1% | 30% | approximately 5% | approximately 30% | approximately 30% | – | – | – | – | – | – | – | – | – | –
CCN(CC)Cc1ccc2cc(COC(=O)Nc3ccc(C(=O)NO)cc3)ccc2c1.Cl [Givinostat] | – | 650 nM | 300 ng/mL | 1% | 30% | approximately 5% | approximately 30% | approximately 30% | 200 mg | 200 mg once daily | – | – | – | – | – | – | – | –
Cn1cc(CNCC2CCN(c3ncc(C(=O)NO)cn3)CC2)c2ccccc21 [JNJ-26481585, N-hydroxy-2-(4-((((1-methyl-1H-indol-3-yl)methyl)amino)methyl)piperidin-1-yl)pyrimidine-5-carboxamide] | – | – | – | 1% | 30% | approximately 5% | approximately 30% | approximately 30% | – | – | – | – | – | – | – | – | – | –
Nc1ccccc1NC(=O)c1ccc(CNc2nccc(-c3cccnc3)n2)cc1 [Mocetinostat] | – | – | – | 1% | 30% | approximately 5% | approximately 30% | approximately 30% | – | – | 500 nM | 200 ng/mL | – | – | – | – | – | –
CN(C)Cc1c(C(=O)NCCOc2ccc(C(=O)NO)cc2)oc2ccccc12 [PCI-24781, 3-(dimethylaminomethyl)-N-[2-[4-(hydroxycarbamoyl)phenoxy]ethyl]-1-benzofuran-2-carboxamide] | – | – | – | 1% | 30% | approximately 5% | approximately 30% | approximately 30% | – | – | – | – | – | – | – | – | – | –
CCCC(CCC)C(=O)O [VPA, valproic acid] | – | – | – | – | – | – | – | – | – | – | – | – | 1% | 30% | approximately 30% | approximately 5% | approximately 30% | –
O=C(CCCCCCC(=O)Nc1ccccc1)NO [Vorinostat] | – | 1100 nM | – | 1% | 30% | approximately 5% | approximately 30% | approximately 30% | 200 mg b.i.d | – | – | 300 ng/mL | – | – | – | – | – | 400 mg once daily
